In patent US20230025932A1, “NOVEL FUNCTIONALIZED LACTONES AS MODULATORS OF THE 5-HYDROXYTRYPTAMINE RECEPTOR 7 AND THEIR METHOD OF USE” (Temple University-Of The Commonwealth System of Higher …, priority 2019, published 2023):

Legend:
5-HT7 receptors [1] = target: T1, 5-HT7 receptors (Homo sapiens, UniProt P34969); assay: Functional cAMP enzyme fragment complementation assay (HitHunter cAMP), antagonist Kb; type: cell-based; parameters: expressed in transfected cells; details: cells expressing human 5HT7, antagonist mode with EC70 5-HT
Experimental: Functional efficacy of the compounds of the disclosure on 5-HT7 serotonin receptors are measured in a cell based cAMP enzyme fragment complementation assay using the HitHunter cAMP assay (DiscoveRx). Cells stably expressing human 5HT7 receptors are plated in 96-well plates at 4000 cells/well, 16-20 hours prior to assay in growth media (Ultraculture medium, 2 mM GlutaMax and G418 1 mg/mL. Serial dilutions of the agonist, 5-hydroxytryptamine (5-HT), are prepared in a final concentration range of 10 μM to 10 nM. Compounds of the disclosure are prepared in 3-fold serial dilutions to obtain a final concentration range of 10 μM to 0.1 nM. Compounds of the disclosure are tested for agonist activity in the absence of 5-HT and antagonist activity in the presence of 5-HT. For the cAMP assay, the protocol is followed according to the instructions provided by the supplier. Briefly, cells are incubated with a compound of the disclosure for 30 minutes at 37° C. prior to addition of EC70 concentration of 5-HT. After an additional 30 minutes, cAMP antibody/cell lysis solution is added (20 μL/well) and incubated for 60 minutes at room temperature. cAMP XS+EA reagent is added (20 μL/well) and incubated for 2 hours at room temperature. Luminescence is read on the Envision Multilabel plate reader.

5-HT7 receptors [2] = target: T1, 5-HT7 receptors; assay: Radiolabeled binding ([3H]LSD competition, membrane fractions)

T1 sequence (P34969 whole entry, the tested form may be a part): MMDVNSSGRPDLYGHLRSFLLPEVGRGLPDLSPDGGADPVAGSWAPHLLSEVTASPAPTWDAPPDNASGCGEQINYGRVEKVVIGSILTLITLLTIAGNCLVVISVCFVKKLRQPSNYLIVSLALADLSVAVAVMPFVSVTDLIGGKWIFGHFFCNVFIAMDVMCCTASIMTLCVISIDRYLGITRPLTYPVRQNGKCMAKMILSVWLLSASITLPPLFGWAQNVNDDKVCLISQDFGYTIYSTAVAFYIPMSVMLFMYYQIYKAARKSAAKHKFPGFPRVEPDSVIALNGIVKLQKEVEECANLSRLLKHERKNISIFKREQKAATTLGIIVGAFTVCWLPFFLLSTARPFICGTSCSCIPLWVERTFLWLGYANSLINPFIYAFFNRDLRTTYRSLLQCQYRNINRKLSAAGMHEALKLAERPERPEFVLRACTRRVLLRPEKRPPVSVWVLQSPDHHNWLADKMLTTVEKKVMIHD

| Kb (5-HT7 receptors [1]) | Ki (5-HT7 receptors [2]) | Structure (SMILES) |
| --- | --- | --- |
| 10 to 100 nM | – | CC(=O)NCC(=O)N1CCC2(CC1)C[C@H](CCN1CCN(c3ccc(F)cc3)CC1)OC2=O [Compound 6] |
| 10 to 100 nM | 50 to 200 nM | CS(=O)(=O)NCC(=O)N1CCC2(CC1)C[C@H](CCN1CCN(c3cccc(Cl)c3)CC1)OC2=O [Compound 9] |
